These results are taken from patent publication US11267815B2, “Class of amino-substituted nitrogen-containing fused ring compounds, preparation method therefor, and use thereof” (SHANGHAI RINGENE BIOPHARMA CO., LTD., priority 2017, dated 2022).

One may read the IC50 as the concentration needed to halve the response being measured.

Read-outs that look alike come from different tables or passages of the source.

What all share (format): biochemical
One assay has as its target FGFR4 (Homo sapiens (Human), UniProt P22455). Briefly: Inhibitory activity on kinase FGFR4 (Caliper mobility shift). The protocol:
(§1) (1). Preparation of 1×Kinase buffer; (2) Preparation of the gradient concentrations of the compounds: the concentration of the compounds to be tested started from 10 μM, which was 3-fold diluted to prepare 10 dilutions, and then tested in duplicated wells. The compounds were 100-fold serially diluted into 10 dilutions with different final concentrations in 96-well plates, each of which was further diluted with 1×Kinase buffer to prepare an intermediate dilution having a concentration of 5 times the final concentration; (3) adding 5 μL of each of the prepared compound solution into the compound wells of 384-well plates, and each concentration set single well; adding 5 μL of 5% DMSO into negative control wells and positive control wells respectively; (4) preparing a kinase solution having a concentration of 2.5 times the final concentration with 1×kinase buffer; (5) adding 10 μL of kinase solution at a concentration of 2.5 times the final concentration into the compound wells and the positive control wells respectively; and adding 10 μL of 1×Kinase buffer into the negative control wells; (6) centrifuging at 1000 rpm for 30 seconds, and incubating at room temperature for 10 minutes after shaking and mixing evenly; (7) preparing a mixed solution of ATP and Kinase substrate 22 having a concentration of 2.5 times the final concentration with 1×Kinase Buffer; (8) adding 10 μL of the mixed solution of ATP and substrate at a concentration of 2.5 times the final concentration to initiate the reaction; (9) Centrifuging the 384-well plates at 1000 rpm for 30 seconds, and incubating at 28° C. for corresponding time respectively after shaking and mixing; (10) adding 30 μL of stop detection solution to stop the kinase reaction, centrifuging at 1000 rpm for 30 seconds, and shaking and mixing the mixture evenly; (11) reading the conversion rate by Caliper Ezreader II. The dose-effect curve was fitted by the log (inhibitor) vs. response-variable slope of GraphPad Prism 5 with the log value of concentration as the X axis and the percentage inhibition rate as the Y axis, then the IC50 value of each compound on the enzyme activity was obtained.

The next assay concerns the target FGFR1 (Homo sapiens (Human), UniProt P11362). Put plainly: Inhibitory activity on kinase FGFR1 (Caliper mobility shift). The procedure: as §1
Assay [1] deals with EGFR, VEGFR, PDGFR, FGFR, RET, MET, Src, Lyn, Syk, MEK, CDK, RA, ROS. Briefly: Inhibitory activities on different kinases (selectivity). Particulars: versus different kinases. The protocol: The inhibitory activities of the compounds of the present disclosure on different kinases such as EGFR, VEGFR, PDGFR, FGFR, RET, MET, Src, Lyn, Syk, MEK, CDK, RA, ROS, etc., were also determined.

Chain of FGFR1 (P11362 22-822): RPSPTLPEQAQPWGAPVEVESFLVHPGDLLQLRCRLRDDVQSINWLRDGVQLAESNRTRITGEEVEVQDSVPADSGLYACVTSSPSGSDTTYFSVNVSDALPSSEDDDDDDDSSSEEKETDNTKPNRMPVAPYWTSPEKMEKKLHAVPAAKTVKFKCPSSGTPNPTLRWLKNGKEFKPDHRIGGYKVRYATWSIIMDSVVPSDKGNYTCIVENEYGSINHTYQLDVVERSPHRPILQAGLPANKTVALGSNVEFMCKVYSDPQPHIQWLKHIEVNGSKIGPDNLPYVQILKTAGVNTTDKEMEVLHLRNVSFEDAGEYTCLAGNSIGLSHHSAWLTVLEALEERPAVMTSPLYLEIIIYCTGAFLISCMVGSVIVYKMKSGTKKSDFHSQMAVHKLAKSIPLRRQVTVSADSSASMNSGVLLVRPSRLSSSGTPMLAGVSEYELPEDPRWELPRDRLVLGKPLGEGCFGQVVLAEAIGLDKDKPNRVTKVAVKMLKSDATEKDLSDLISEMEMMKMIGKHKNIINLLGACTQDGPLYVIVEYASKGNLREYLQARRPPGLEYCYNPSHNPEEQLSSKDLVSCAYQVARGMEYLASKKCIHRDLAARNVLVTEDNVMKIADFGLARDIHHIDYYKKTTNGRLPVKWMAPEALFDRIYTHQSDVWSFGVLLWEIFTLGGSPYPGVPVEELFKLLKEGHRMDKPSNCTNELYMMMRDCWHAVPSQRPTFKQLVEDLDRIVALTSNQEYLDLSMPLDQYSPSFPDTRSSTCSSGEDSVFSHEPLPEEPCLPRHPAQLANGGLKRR
Chain of FGFR4 (P22455 22-802): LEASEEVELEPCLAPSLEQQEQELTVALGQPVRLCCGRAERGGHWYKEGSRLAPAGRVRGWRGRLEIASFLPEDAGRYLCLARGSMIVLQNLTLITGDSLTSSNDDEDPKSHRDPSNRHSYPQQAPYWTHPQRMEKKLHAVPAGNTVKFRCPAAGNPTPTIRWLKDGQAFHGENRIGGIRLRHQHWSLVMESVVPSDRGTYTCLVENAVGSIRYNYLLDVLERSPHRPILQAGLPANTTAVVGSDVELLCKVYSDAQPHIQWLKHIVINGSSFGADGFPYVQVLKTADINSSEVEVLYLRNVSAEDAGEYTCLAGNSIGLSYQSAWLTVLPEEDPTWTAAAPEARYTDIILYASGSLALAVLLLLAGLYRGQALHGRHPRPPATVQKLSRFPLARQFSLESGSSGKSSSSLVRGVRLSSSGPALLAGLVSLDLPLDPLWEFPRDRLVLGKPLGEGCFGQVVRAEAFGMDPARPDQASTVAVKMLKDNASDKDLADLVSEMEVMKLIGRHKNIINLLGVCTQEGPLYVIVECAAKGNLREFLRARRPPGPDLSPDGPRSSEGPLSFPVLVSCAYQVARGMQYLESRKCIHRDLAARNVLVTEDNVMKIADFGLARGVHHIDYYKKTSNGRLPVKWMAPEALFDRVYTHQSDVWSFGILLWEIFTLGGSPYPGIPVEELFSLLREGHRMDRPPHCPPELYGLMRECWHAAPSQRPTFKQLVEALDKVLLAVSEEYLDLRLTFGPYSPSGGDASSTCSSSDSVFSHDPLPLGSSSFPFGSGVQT

On to `C=CC(=O)N1CCN(CCCc2cn3c(n2)c(-c2c(Cl)c(OC)cc(OC)c2Cl)cc2cnc(NC)nc23)CC1` [Embodiment 3, 1-(4-(3-(6-(2,6-dichloro-3,5-dimethoxyaniline)-2-(methylamine)imidazo[1′,2′:1,6]pyrido[2,3-d]pyrimidin-8-yl)propyl)piperazine-1-yl)prop-2-en-1-one], for which the IC50 at FGFR4 (read-out: FGFR4 IC50) was < 20 nM; on FGFR4 (read-out: IC50 of inhibitory activity on FGFR4), < 1 nM; at FGFR1 (read-out: FGFR1 IC50) it was < 20 nM; at FGFR1 (read-out: IC50 of inhibitory activity on FGFR1), < 1 nM. Further, the kinase selectivity entry in assay [1] was “greater than 100 times”.
